Values joined by “and” are separate entries in the source; they are usually repeats but may differ in a detail not shown here. Equal entries are not always repeated.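 Grown in 96-well plates, cells were treated for 48 hours with each compound at five concentrations. Insufficient inhibition: endpoint recorded as highest concentration tested. The concentration for 50% growth inhibition is given as GI50. TGI denotes the concentration required for complete inhibition of growth.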
How the values were obtained:
Experiment in all cases: inhibition of tumour cell growth, NCI panel, 48 h
SK-MEL-28 melanoma = system: SK-MEL-28 melanoma
LOX IMVI melanoma = system: LOX IMVI melanoma
MALME-3M melanoma = system: MALME-3M melanoma
UO-31 renal = system: UO-31 renal
K-562 leukemia = system: K-562 leukemia
OVCAR-4 ovarian = system: OVCAR-4 ovarian
RPMI-8226 leukemia = system: RPMI-8226 leukemia
NCI-H226 lung = system: NCI-H226 lung
SF-268 CNS = system: SF-268 CNS
SNB-75 CNS = system: SNB-75 CNS

SMILES	TGI (SK-MEL-28 melanoma) [µM]	TGI (LOX IMVI melanoma) [µM]	TGI (MALME-3M melanoma) [µM]	TGI (UO-31 renal) [µM]	TGI (K-562 leukemia)	TGI (OVCAR-4 ovarian) [µM]	TGI (RPMI-8226 leukemia) [µM]	TGI (NCI-H226 lung) [µM]	TGI (SF-268 CNS) [µM]	GI50 (SK-MEL-28 melanoma) [µM]	GI50 (LOX IMVI melanoma) [µM]	GI50 (UO-31 renal) [µM]	GI50 (K-562 leukemia) [µM]	GI50 (OVCAR-4 ovarian) [µM]	GI50 (RPMI-8226 leukemia) [µM]	GI50 (NCI-H226 lung) [µM]	GI50 (SF-268 CNS) [µM]	GI50 (MALME-3M melanoma) [µM]	GI50 (SNB-75 CNS) [µM]	TGI (SNB-75 CNS) [µM]
Cc1cc(=O)oc2c(OS(C)(=O)=O)c(OS(C)(=O)=O)ccc12	> 100	> 100	> 100	> 100	> 100 µM	> 100	> 100	> 100	> 100											
Nc1ccc(-c2nc3ccccc3o2)cc1S	58.8	24.8		50.6	> 100 µM	26	32	30.4	34.5	24.9	12.3	19.5	19	7.58	12.4	11.8	15			
O=C(O)c1cccc2cccc(C(=O)O)c12.[Hg]	29.3	27.9	15	35	15.5 µM	32.6		40.7	26.5	14.9	14.7	20.7	1.5	18		21.1	11.5	4.04	18.9	36.9
NC(=O)Nc1c([N+](=O)[O-])cc(C(F)(F)F)cc1[N+](=O)[O-]	> 100	> 100		> 100	> 100 µM	> 100	> 100	> 100	> 100											
CCC1CC(C)=CCN1S(=O)(=O)c1ccc(C)cc1 (stereo not drawn)		33.6	61.7	66.6	> 100 µM	> 100	20.5	80.7	62.1											50.6
COc1cc(Nc2nc3cc(C(F)(F)F)ccc3nc2-c2ccccc2)cc(OC)c1OC	> 100	> 100	> 100	> 100	> 100 µM	51.3		> 100	> 100											> 100
Cc1ccc(-c2nc(N)c(C#N)c3c2CCOc2c-3ccc3ccccc23)cc1	> 100		7.89	> 100	> 40.8 µM	> 79.5	2.26	> 100	31.6	2.48		4.14	0.0614	16.3	0.29	> 100	0.356	0.0779	5.02	> 100
O=C1c2cc([N+](=O)[O-])cc3cc([N+](=O)[O-])cc(c23)C(=O)N1CCCNCCNCCCN1C(=O)c2cc([N+](=O)[O-])cc3cc([N+](=O)[O-])cc(c23)C1=O	2.11		1.33	3.35	14.9 µM	3.31	0.278	2.57	2.03											2.57
NCCCNCCSSC/C=C\CSSCCNCCCN	> 100	> 100	> 100	> 100	62.3 µM and 65.1 µM	> 100	> 100		> 100											> 100
CCOC(=O)NC(=O)c1cn(CCCOC(=O)NCCCCCCNC(=O)OCCCn2cc(C(=O)NC(=O)OCC)c(=O)[nH]c2=O)c(=O)[nH]c1=O	88.9	> 100			39.8 µM	29.6	39.2													45.2
O=C(NC1CCCCC1)NS(=O)(=O)c1ccc(-n2nc3c(c2-c2ccc(Cl)cc2)Cc2ccccc2-3)cc1	50.5	4.12		8.67	5.89 µM	> 100	5.43	54.9	45.6	21.9	1.94	3.64	2.15	28.8	2.11	6.15	20.1		27.6	> 100
N#Cc1c(N)nc(NCc2ccccc2)c(C#N)c1-c1ccccc1Cl	> 100	35.9	90.2	> 100		45.3	> 100	14.5	58.5	49.5	4.75	38.1		5.04	48.6	2.39	12.6	21	10.3	48.8
CC1=NC(C(C)C)C(=O)O1 (stereo not drawn)	> 100		> 100	> 100	> 100 µM	> 100	56	> 100	> 100											> 100
COC1OC(COS(=O)(=O)c2ccc(C)cc2)C(O)C(OS(=O)(=O)c2ccc(C)cc2)C1OS(=O)(=O)c1ccc(C)cc1 (stereo not drawn)	> 100		> 100	> 100	> 100 µM	> 100	> 100	> 100	> 100											> 100
O=C(NCCNc1nccc(-c2c(-c3ccc(F)cc3)nc3sccn23)n1)c1ccccc1	37.1	31.4		18.5	> 100 µM	71.7	27	25	> 100	13.4	4.3	1.75	7.72	15.1	5.88	5.87	12.4		7.27	62.5
Cc1sc(NC2=NC(=O)/C(=C\c3ccccc3)S2)nc1-c1nc(NC2=NC(=O)/C(=C\c3ccccc3)S2)sc1C	> 50	35.3		> 44.4	> 35 µM		31.6	> 32.8	49.4	25.3	11.2	24.9	13.2		8.45	12.4	14.7			
C=C(C)[C@@H]1CC[C@]2(C(=O)O)CC[C@]3(C)[C@H](CC[C@@H]4[C@@]5(C)C/C(=C/c6ccc(OC)cc6)C(=O)C(C)(C)[C@@H]5CC[C@]43C)[C@@H]12	3.72		4.29	4.42	> 100 µM	11.2		4.3	17.4	1.91		1.45	2.21	2.5		1.85	2.85	1.84	2.68	27.1

Reference: PubChem BioAssay (NCI)
